{
  "source": "patent US11827582B2",
  "about": "“Substituted amines as disrupters of ABETA42 oligomer formation” (ACELOT, INC., priority 2017, dated 2023)",
  "key": {"[1]": {"biological_target": "Human Ether-á-go-go-Related-Gene channel (hERG) (Homo sapiens, UniProt Q12809)", "sequence (Q12809 whole entry)": "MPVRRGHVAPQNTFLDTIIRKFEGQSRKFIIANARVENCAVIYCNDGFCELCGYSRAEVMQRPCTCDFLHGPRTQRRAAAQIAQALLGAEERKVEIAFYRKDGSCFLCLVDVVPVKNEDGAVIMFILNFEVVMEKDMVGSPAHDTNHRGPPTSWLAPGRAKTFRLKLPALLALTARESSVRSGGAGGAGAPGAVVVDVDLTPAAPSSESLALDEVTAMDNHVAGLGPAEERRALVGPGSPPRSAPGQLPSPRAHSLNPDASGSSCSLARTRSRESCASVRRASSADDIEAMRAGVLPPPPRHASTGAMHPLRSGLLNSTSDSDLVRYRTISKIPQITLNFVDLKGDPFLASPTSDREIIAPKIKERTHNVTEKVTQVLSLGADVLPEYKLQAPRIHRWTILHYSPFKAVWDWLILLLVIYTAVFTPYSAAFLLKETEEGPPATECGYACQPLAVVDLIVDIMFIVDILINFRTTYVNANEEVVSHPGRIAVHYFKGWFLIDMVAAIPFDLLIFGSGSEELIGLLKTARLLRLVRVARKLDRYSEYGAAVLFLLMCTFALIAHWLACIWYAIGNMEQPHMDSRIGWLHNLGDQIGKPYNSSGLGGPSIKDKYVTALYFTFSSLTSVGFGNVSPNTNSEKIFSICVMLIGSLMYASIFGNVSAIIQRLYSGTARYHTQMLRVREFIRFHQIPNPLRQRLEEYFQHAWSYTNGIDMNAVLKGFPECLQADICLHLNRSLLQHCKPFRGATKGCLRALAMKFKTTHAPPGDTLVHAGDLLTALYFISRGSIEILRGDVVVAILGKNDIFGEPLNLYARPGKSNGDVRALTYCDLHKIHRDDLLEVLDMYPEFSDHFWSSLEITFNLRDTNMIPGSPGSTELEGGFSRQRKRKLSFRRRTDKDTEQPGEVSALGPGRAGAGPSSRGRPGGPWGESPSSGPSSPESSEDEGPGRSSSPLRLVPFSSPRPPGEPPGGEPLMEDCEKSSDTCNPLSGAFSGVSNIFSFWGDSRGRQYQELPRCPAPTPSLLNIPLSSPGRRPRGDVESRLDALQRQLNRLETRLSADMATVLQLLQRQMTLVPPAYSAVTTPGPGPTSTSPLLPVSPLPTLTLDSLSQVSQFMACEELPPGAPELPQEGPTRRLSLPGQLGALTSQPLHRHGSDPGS", "experiment": "hERG cellular patch-clamp assay (cardiac toxicity)", "from_the_text": "Contract laboratories provided screening of hERG ion channel cell lines as an indicator of cardiac safety. […] Cellular “patch-clamp” assays provide the data required by ICH guidelines."}, "wild type Aβ42": {"biological_target": "wild type Aβ42 (Homo sapiens, UniProt P05067)", "sequence (P05067 672-713 limits assumed)": "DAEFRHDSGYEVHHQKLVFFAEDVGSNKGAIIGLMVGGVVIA", "experiment": "IMS-MS assay for Aβ42 oligomer formation (arrival time distributions)", "settings": "for Aβ42 wt dodecamer formation (overall conclusion): 10 μM in 10 mM ammonium acetate", "experimental": "A physiologically relevant solution of Aβ42 and a drug candidate was incubated for varying periods of time and then loaded into a special spray capillary and the solution nano-electrosprayed, captured by an ion funnel, transported, dehydrated and continuously fed into a quadrapole mass analyser, and detected. This process yielded a mass spectrum. In order to obtain either structural or oligomeric information, the ions were next stored at the end of the funnel and then pulse injected at low energy into a drift cell filled with helium gas and subjected to a low electric field to transport the ions through the cell. The quadrapole is set to pass a particular mass to charge ratio (m=z), and an arrival time distribution (ATD) of the ions at this m=z is obtained at the detector (see, e.g., Bernstein et al., Journal of the American Chemical Society, 127(7):2075-2084, 2005). All molecules were at a concentration of 10 μM in 10 mM ammonium acetate.\nBy collecting Arrival Time Distributions (ATDs) of each of these charge states, ions of the same mass-to-charge (m/z) ratio were separated by their size and shape.\nUsing kinetic theory and parameters of the experiment, arrival times are related to an ion's mobility in the drift cell, which is inversely proportional to the ion's collision cross section. Oligomer formation is shown for dimer (n=2) up to dodecamer (n=12) for the z/n=−5/2 charge state.\nFor example, the peak in z/n=−3 ATD with a collision cross section of 698 Å^2 corresponds to a less compact solution-phase monomer structure. The peak of 642 Å^2 corresponds to a more compact gas phase structure."}, "[2]": {"experiment": "Caco-2 A-B and B-A permeability test", "assay_type": "in vitro ADME", "settings": "human", "experimental": "Subsequently, Caco-2 A-B and B-A permeability tests (pH 7.4) were performed on the […]-107 molecules in order to assess their human intestinal permeability and drug efflux. This assay measures the […] rate of transport of a compound across the Caco-2 cell line that is derived from a human colon carcinoma. The cells have characteristics that resemble intestinal epithelial cells such as the formation of a polarized monolayer, well-defined brush border on the apical surface and intercellular junctions."}, "[3]": {"system": "Aβ oligomer induced changes in membrane trafficking in 21 DIV primary rodent neuronal cultures", "experiment": "Membrane trafficking assay (MTT) in primary neuronal cultures treated with oligomeric Aβ", "assay_type": "cell-based", "settings": "read-out: MTT ASSAY EC50", "experimental": "Seven drug candidates (A0101-A0107) (FIG. 2) were tested in a primary cell biological screening assay capable of measuring Aβ oligomer induced changes in membrane trafficking in 21 DIV primary rodent neuronal cultures (see Izzo et al., PLoS ONE 9(11):e111899, 2014). Briefly, cultures were treated with either oligomeric Aβ or oligomeric Aβ plus a candidate compound for 24 hours. Non-Aβ treated cells served as a negative control. Next, a non-membrane permeable dye (MTT) was added to the dishes for 1 hour, during which time the dye can be internalized by endocytosis. At the end of the hour, the dye containing media was removed, the dishes were rinsed extensively with isotonic buffer, and finally, the washed cells were extracted with a Triton X-100 buffer to solubilize membranes and release the dye, which is quantitated."}, "[4]": {"settings": "Caco-2, apical to basolateral, pH 7.4, read-out: A-B perm"}, "[5]": {"settings": "Caco-2, basolateral to apical, pH 7.4, read-out: B-A perm"}},
  "note": "Like-named read-outs stand apart in the source and are kept apart here.",
  "data": [
    {"smiles": "N#Cc1ccc(CNCc2cccc(CN3CCCC3)c2)cc1", "note": "[AC0107, 4-[({[3-(pyrrolidin-1-ylmethyl)phenyl]methyl}amino)methyl]benzonitrile]", "values": [
      {"measurement": "IC50", "setting": "[1]", "result": "> 10", "unit": "µM"},
      {"measurement": "relative amounts of earlier arriving structures in z/n=−4 ATD", "setting": "wild type Aβ42; 1:10 Aβ42 wt to compound, day 2", "result": "reduces"},
      {"measurement": "wild type Aβ42 dodecamer formation", "setting": "wild type Aβ42; 1:10 Aβ42 wt to compound, day one", "result": "inhibited"},
      {"measurement": "Aβ42 hexamer growth", "setting": "wild type Aβ42; IMS-MS", "result": "slowing hexamer growth"},
      {"measurement": "Aβ42 wt dodecamer formation (overall conclusion)", "setting": "wild type Aβ42; IMS-MS", "result": "inhibitor of Aβ42 wt dodecamer formation"},
      {"measurement": "dodecamer formation in z/n=−5/2 ATD", "setting": "wild type Aβ42; after 29 hours", "result": "still inhibited"},
      {"measurement": "earlier arriving structures in z/n=−3 ATD", "setting": "wild type Aβ42; between 26 and 30 hours incubation time", "result": "disappear"},
      {"measurement": "Papp A→B", "setting": "[2]; [4]", "result": 18.4, "unit": "×10⁻⁶ cm/s"},
      {"measurement": "Papp B→A", "setting": "[2]; [5]", "result": 6.5, "unit": "×10⁻⁶ cm/s"},
      {"measurement": "EC50", "setting": "[3]", "result": 0.45, "unit": "µM"}
    ]},
    {"smiles": "CC(C)NCC(O)COc1cccc2ccccc12", "note": "(centres unmarked) [propranolol, reference compound]", "values": [
      {"measurement": "Papp A→B", "setting": "[2]; [4]", "result": 60.6, "unit": "×10⁻⁶ cm/s"},
      {"measurement": "Papp B→A", "setting": "[2]; [5]", "result": 24.2, "unit": "×10⁻⁶ cm/s"}
    ]},
    {"smiles": "COc1cc2c(c(OC)c1OC)-c1ccc(OC)c(=O)cc1[C@@H](NC(C)=O)CC2", "note": "[colchicine, reference compound]", "values": [
      {"measurement": "Papp A→B", "setting": "[2]; [4]", "result": 0.1, "unit": "×10⁻⁶ cm/s"},
      {"measurement": "Papp B→A", "setting": "[2]; [5]", "result": 13.9, "unit": "×10⁻⁶ cm/s"}
    ]},
    {"smiles": "Cc1cc(CN2CC=C(c3ccc(O)cc3)CC2)no1", "note": "[AC0106, 4-{1-[(5-methyl-1,2-oxazol-3-yl)methyl]-1,2,3,6tetrahydropyridin-4-yl}phenol]", "values": [
      {"measurement": "IC50", "setting": "[1]", "result": "> 10", "unit": "µM"},
      {"measurement": "Papp A→B", "setting": "[2]; [4]", "result": 74.4, "unit": "×10⁻⁶ cm/s"},
      {"measurement": "Papp B→A", "setting": "[2]; [5]", "result": 42.3, "unit": "×10⁻⁶ cm/s"},
      {"measurement": "EC50", "setting": "[3]", "result": 1, "unit": "µM"}
    ]},
    {"smiles": "C[C@@H](NCCCc1cccc(C(F)(F)F)c1)c1cccc2ccccc12", "note": "[Cinacalcet, reference compound]", "values": [
      {"measurement": "Aβ42 wt dodecamer formation (overall conclusion)", "setting": "wild type Aβ42; IMS-MS", "result": "did not inhibit"}
    ]},
    {"smiles": "CN(C)Cc1ccc(CNCc2ccc3c(c2)OCCO3)cc1", "note": "[AC0102, (2,3-dihydro-1,4-benzodioxin-6-ylmethyl)({4[(dimethylamino)methyl]-phenyl}methyl)amine]", "values": [
      {"measurement": "IC50", "setting": "[1]", "result": "> 10", "unit": "µM"},
      {"measurement": "Papp A→B", "setting": "[2]; [4]", "result": 30, "unit": "×10⁻⁶ cm/s"},
      {"measurement": "Papp B→A", "setting": "[2]; [5]", "result": 4.5, "unit": "×10⁻⁶ cm/s"},
      {"measurement": "EC50", "setting": "[3]", "result": 3.5, "unit": "µM"}
    ]},
    {"smiles": "CNC(=C[N+](=O)[O-])NCCSCc1ccc(CN(C)C)o1", "note": "[ranitidine, reference compound]", "values": [
      {"measurement": "Papp A→B", "setting": "[2]; Caco-2, pH 7.4", "result": 0.7, "unit": "×10⁻⁶ cm/s"},
      {"measurement": "Papp B→A", "setting": "[2]; Caco-2, pH 7.4", "result": 3.5, "unit": "×10⁻⁶ cm/s"}
    ]},
    {"smiles": "CN(C)C(=O)C(c1ccccc1)N1CCN(c2ccc(O)cc2)CC1", "note": "(centres unmarked) [AC0103, 2-[4-(4-hydroxyphenyl)piperazin-1-yl]-N,N-dimethyl-2 phenylacetamide]", "values": [
      {"measurement": "IC50", "setting": "[1]", "result": "> 10", "unit": "µM"},
      {"measurement": "Papp A→B", "setting": "[2]; [4]", "result": 61.6, "unit": "×10⁻⁶ cm/s"},
      {"measurement": "Papp B→A", "setting": "[2]; [5]", "result": 39.7, "unit": "×10⁻⁶ cm/s"},
      {"measurement": "EC50", "setting": "[3]", "result": 1.3, "unit": "µM"}
    ]},
    {"smiles": "N#Cc1cccc(CNCc2ccc(CN3CCOCC3)cc2)c1", "note": "[AC0104, 3-[({[4-(morpholin-4 ylmethyl)phenyl]methyl}amino)methyl]benzonitrile]", "values": [
      {"measurement": "IC50", "setting": "[1]", "result": "> 10", "unit": "µM"},
      {"measurement": "Papp A→B", "setting": "[2]; [4]", "result": 59.4, "unit": "×10⁻⁶ cm/s"},
      {"measurement": "Papp B→A", "setting": "[2]; [5]", "result": 13.9, "unit": "×10⁻⁶ cm/s"},
      {"measurement": "EC50", "setting": "[3]", "result": 0.7, "unit": "µM"}
    ]},
    {"smiles": "CC(=O)Nc1ccc(CNCCc2cccc(Cl)c2)cc1", "note": "[AC0101, N-[4-({[2-(3-chlorophenyl)ethyl]amino}methyl)phenyl]acetamide]", "values": [
      {"measurement": "IC50", "setting": "[1]", "result": 8, "unit": "µM"},
      {"measurement": "hERG inhibition (in words)", "setting": "[1]; summary of Table 2, 4th column", "result": "moderate potency"},
      {"measurement": "Papp A→B", "setting": "[2]; [4]", "result": 101, "unit": "×10⁻⁶ cm/s"},
      {"measurement": "Papp B→A", "setting": "[2]; [5]", "result": 41.6, "unit": "×10⁻⁶ cm/s"},
      {"measurement": "EC50", "setting": "[3]", "result": 3.9, "unit": "µM"}
    ]}
  ]
}
